From patent publication US20140050778A1, “NUCLEIC ACID BINDING COMPOUNDS, METHODS OF MAKING, AND USE THEREOF” (UNIVERSITY OF ROCHESTER, priority 2010, published 2014)

How the values were obtained:
[1] = system: C1-S C2C12 mouse myoblasts; assay: Firefly luciferase reporter without CUG repeats (control); format: cell-based; conditions: C1-S cells (no CUG repeats), 3 days
Experimental: The ability of selected compounds to inhibit the formation of CUG^exp RNA-MBNL1 complexes in mouse myoblasts was then evaluated. […] Cells were grown in 100 μl growth media in 96-well plates to 10% confluency. […] Culture media was replaced with fresh media containing 1% WST-1 reagent (Roche). After 15-20 minutes of incubation, the WST-1 containing media was transferred to a clear 96-well plate, and the absorbances at 450 nm and 690 nm measured with a PerkinElmer EnVision Plate Reader. Cells were gently rinsed (1×PBS) before incubation at -20° C. in 100 μl 1X Passive Lysis Buffer (Promega) for 10 minutes. Immediately before luminescence detection, 20 μl of each lysate was mixed with 50 μl of Luciferase Assay Reagent (Promega) in a fresh opaque-white 96-well plate. Luminescence values were normalized for well-to-well variations in viable cell numbers by dividing by the corresponding (A450 nm-[…] nm) values of the WST-1 containing media. […] Thus, CUG^exp binding compounds are capable of releasing the sequestered mRNA transcripts into the cytoplasm for translation.

C1-S cells [2] = assay: WST-1 viability; format: cell-based, mouse; conditions: C1-S cells at the assay concentrations
Experimental: The ability of selected compounds to inhibit the formation of CUG^exp RNA-MBNL1 complexes in mouse myoblasts was then evaluated. For this study, C2C12 mouse myoblasts engineered to stably express a firefly luciferase transcript with or without ˜800 uninterrupted CUG repeats in an hDMPK 3′UTR (clones C5-14 and C1-S, respectively) were used. Cells were grown in 100 μl growth media in 96-well plates to ˜10% confluency. Compound was added at various concentrations in triplicate to both C1-S and C5-14 cultures, and incubated for 3 days. Culture media was replaced with fresh media containing 1% WST-1 reagent (Roche). After ˜15-20 minutes of incubation, the WST-1 containing media was transferred to a clear 96-well plate, and the absorbances at 450 nm and 690 nm measured with a PerkinElmer EnVision Plate Reader. Cells were gently rinsed (1×PBS) before incubation at −20° C. in 100 μl 1X Passive Lysis Buffer (Promega) for 10 minutes. Immediately before luminescence detection, 20 μl of each lysate was mixed with 50 μl of Luciferase Assay Reagent (Promega) in a fresh opaque-white 96-well plate. Luminescence values were normalized for well-to-well variations in viable cell numbers by dividing by the corresponding (A450 nm-A690 nm) values of the WST-1 containing media.

C1-S cells [3] = assay: Total protein in cell lysates (Bradford assay); format: cell-based, mouse; conditions: increasing concentration
C5-14 cells = format: cell-based, mouse
Description: Formation of (CUG)800 RNA-MBNL1 complexes in the C5-14 cell line suppresses translation of this mRNA and, therefore, suppresses the cellular level of luciferase Inhibition of protein complexation to the (CUG)800 RNA allows translation to occur, restoring luciferase expression. A second cell line (C1-S) carrying an analogous luciferase construct lacking the CUG repeats in the 3′-UTR was used as a positive control for luciferase expression. […] It was hypothesized that binding of the compounds of the present invention to the (CUG)800 repeat in C5-14 cells would likewise promote release of the luciferase transcripts from the nucleus, resulting in increased luciferase expression and activity. In contrast, luciferase activity in positive control (C1-S) cells should not be affected by the presence of CUG RNA binding compounds. […] The fact that this effect is not observed for compounds 10 and 11 likely results from their greater selectivity for CUG repeats. Thus, CUG^exp binding compounds are capable of releasing the sequestered mRNA transcripts into the cytoplasm for translation.

HSA^LR transgenic mice [4] = assay: MBNL1-dependent splicing in mouse myotonic dystrophy model (RT-PCR, vastus muscle); format: in vivo; conditions: 40 mg/kg intraperitoneally once per day for 5 days
Experimental: Mouse handling and experimental procedures were conducted in accordance with the Association for Assessment and Accreditation of Laboratory Animal Care. […] Age- and gender-matched HSA^LR mice (12-16 weeks old) were injected intraperitoneally with 40 mg/kg of compounds or saline alone once per day for 5 days. Mice were sacrificed one day after the last injection, and vastus muscle was obtained for splicing analysis. RNA extraction, cDNA preparation, and RT-PCR were performed as described previously. The PCR products were electrophoresed on agarose gels for separation, and scanned with a laser fluorimager (Typhoon, GE Healthcare). Quantitative analysis of amplified products was performed by ImageQuant software (Molecular Dynamics). Differences between two groups were evaluated by unpaired Student's t-test. A critical test of a compound's performance is its ability to function in vivo. DM1 has several well-studied mouse models (Gomes-Pereira et al., “Myotonic Dystrophy Mouse Models: Towards Rational Therapy Development,” Trends Mol. Med. 17:506-517 (2011), which is hereby incorporated by reference in its entirety). Compound activity in the HSA^LR mouse model, in which transgenic mice carry a long CTG repeat inserted into the human skeletal actin (HSA) gene in skeletal muscle (Mankodi, “Myotonic Dystrophy in Transgenic Mice Expressing an Expanded CUG Repeat,” Science 289:1769-1772 (2000), which is hereby incorporated by reference in its entirety) was examined. […] They also display aberrant splicing of genes, including Clcn1 and Atp2a1, which are hallmarks of nuclear transcript sequestration.

HSA^LR transgenic mice [5] = assay: Acute toxicity observed in treated mice; format: in vivo, mouse; conditions: 40 mg/kg intraperitoneally once per day for 5 days
Experimental: Mouse handling and experimental procedures were conducted in accordance with the Association for Assessment and Accreditation of Laboratory Animal Care. HSA^LR transgenic mice in line 20b expressing human skeletal actin RNA with 250 CUG repeats in the 3′ UTR were previously described (Mankodi, “Myotonic Dystrophy in Transgenic Mice Expressing an Expanded CUG Repeat,” Science 289:1769-1772 (2000), which is hereby incorporated by reference in its entirety). Age- and gender-matched HSA^LR mice (12-16 weeks old) were injected intraperitoneally with 40 mg/kg of compounds or saline alone once per day for 5 days. Mice were sacrificed one day after the last injection, and vastus muscle was obtained for splicing analysis. RNA extraction, cDNA preparation, and RT-PCR were performed as described previously. The PCR products were electrophoresed on agarose gels for separation, and scanned with a laser fluorimager (Typhoon, GE Healthcare). Quantitative analysis of amplified products was performed by ImageQuant software (Molecular Dynamics). Differences between two groups were evaluated by unpaired Student's t-test.

## CCc1nc2cc3ccccc3cc2cc1C(=O)N1CCC[C@H]1C(=O)N[C@@H](C/C=C\C[C@H](NC(=O)[C@@H]1CCCN1C(=O)c1cc2cc3ccccc3cc2nc1CC)C(=O)N[C@@H](CCCCN)C(=O)NCCCN)C(=O)N[C@@H](CCCCN)C(=O)NCCCN [Compound 4]
[1]
  luciferase signal: concentration-dependent decrease in luciferase activity
C1-S cells [2]
  WST-1 viability: no observable toxicity
C1-S cells [3]
  concentration of total protein in cell lysates: decreasing level of protein expression
C5-14 cells
  concentration of total protein in cell lysates: decreasing level of protein expression
HSA^LR transgenic mice [4]
  improvement of Atp2a1 splicing: qualitatively appeared to restore splicing
  improvement of Clcn1 splicing: modest but statistically significant (P=0.0115) improvement
HSA^LR transgenic mice [5]
  acute toxicity effects in mice: significant acute toxicity effects
